Experiments:
[1] = Evaluation of solubility in organic solvents (visual observation of complete dissolution); assay type: physicochemical
Procedure: [Evaluation of Solubility] The evaluation of the solubility of the synthesized compound was conducted by the following method.
About 2-3 mg of the synthesized compound was precisely weighed, and each solvent was added to the compound such that a predetermined concentration of the solute (0.3 wt %, 0.2 wt %, 0.1 wt %) was reached. The resultant mixture was stirred for 30 minutes at a predetermined temperature, and then it was evaluated by visual appearance observation whether or not the solute (synthesized compound) was completely dissolved in the solvent, which was the result of the evaluation of the solubility. As the solvent, chloroform (boiling point 61° C.), toluene (boiling point 111° C.), anisole (boiling point 154° C.), mesitylene (boiling point 165° C.), ortho-dichlorobenzene (boiling point 181° C.) and 1-methylnaphthalene (boiling point 241° C.) were used.

[2] = Thermal weight loss analysis (initial decomposition temperature); assay type: physicochemical
[3] = chloroform, room temperature (25° C.)
[4] = mesitylene, room temperature (25° C.)
[5] = 1-methylnaphthalene, room temperature (25° C.)

SMILES | solubility (concentration completely dissolved) [1, 3] | initial decomposition temperature [2] | solubility (concentration completely dissolved) [1, 5] | also measured
O=C1c2cc(-c3c4c(c(-c5cc6c(s5)C(=O)N(CC(F)(F)C(F)(F)C(F)(F)F)C6=O)c5nsnc35)N=S=N4)sc2C(=O)N1CC(F)(F)C(F)(F)C(F)(F)F [Compound (12-HepFBu)] | ≥ 0.1 wt % | 367 °C | – | solubility (concentration completely dissolved) ([1]; anisole, room temperature (25° C.)): ≥ 0.1 wt %; solubility (concentration completely dissolved) [1, 4]: ≥ 0.1 wt %
CCCCCCCCCCCCN1C(=O)c2cc(-c3c4c(c(-c5cc6c(s5)C(=O)N(CCCCCCCCCCCC)C6=O)c5nsnc35)N=S=N4)sc2C1=O [Compound (12-12)] | ≥ 0.1 wt % | 360 °C | – | solubility (concentration completely dissolved) ([1]; mesitylene, 60° C.): ≥ 0.3 wt %; solubility (concentration completely dissolved) ([1]; toluene, 60° C.): ≥ 0.3 wt %
CCCCCCCCN1C(=O)c2cc(-c3c4c(c(-c5cc6c(s5)C(=O)N(CCCCCCCC)C6=O)c5nsnc35)N=S=N4)sc2C1=O [Compound (12-8)] | ≥ 0.2 wt % | 367 °C | ≥ 0.3 wt % | solubility (concentration completely dissolved) [1, 4]: ≥ 0.3 wt %; solubility (concentration completely dissolved) ([1]; toluene, room temperature (25° C.)): ≥ 0.3 wt %
CCCCCCN1C(=O)c2cc(-c3c4c(c(-c5cc6c(s5)C(=O)N(CCCCCC)C6=O)c5nsnc35)N=S=N4)sc2C1=O [Compound (12-6)] | ≥ 0.2 wt % | 364 °C | ≥ 0.1 wt % | solubility (concentration completely dissolved) ([1]; mesitylene, 80° C.): ≥ 0.3 wt %; solubility (concentration completely dissolved) ([1]; toluene, 80° C.): ≥ 0.3 wt %
CN1C(=O)c2cc(-c3c4c(c(-c5cc6c(s5)C(=O)N(C)C6=O)c5nsnc35)N=S=N4)sc2C1=O [Compound (12-Me)] | – | 367 °C | – | –
CCCCC(CC)CN1C(=O)c2cc(-c3c4c(c(-c5cc6c(s5)C(=O)N(CC(CC)CCCC)C6=O)c5nsnc35)N=S=N4)sc2C1=O (stereo not drawn) [Compound (12-EH)] | ≥ 0.2 wt % | 369 °C | ≥ 0.3 wt % | solubility (concentration completely dissolved) ([1]; mesitylene, 80° C.): ≥ 0.3 wt %; solubility (concentration completely dissolved) ([1]; ortho-dichlorobenzene, room temperature (25° C.)): ≥ 0.3 wt/o; solubility (concentration completely dissolved) ([1]; toluene, 60° C.): ≥ 0.3 wt %
CN1C(=O)c2cc3cc(-c4c5c(c(-c6cc7cc8c(cc7s6)C(=O)N(C)C8=O)c6nsnc46)N=S=N5)sc3cc2C1=O [Compound (22-1)] | – | 475 °C | – | –
CCCCCCN1C(=O)c2cc3cc(-c4c5c(c(-c6cc7cc8c(cc7s6)C(=O)N(CCCCCC)C8=O)c6nsnc46)N=S=N5)sc3cc2C1=O [Compound (22-6)] | – | 405 °C | – | –

— patent US20180219160A1, “BENZOBIS(THIADIAZOLE) DERIVATIVE, INK COMPRISING THE SAME, AND ORGANIC ELECTRONIC DEVICE USING THE SAME” (UBE INDUSTRIES, LTD., priority 2014, published 2018)
